# According to EP0394553A2, “Use of fluorine containing pyridone carboxylic acid derivatives for preparing a medicament for the treatment of HIV infections” (DAIICHI PHARMACEUTICAL CO., LTD., priority 1989, dated 1990):
# System: HIV (LAV 1)
# Test: microbe, parasite or virus in culture
# In short: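 CEM cells were infected with HIV LAV 1 at MOI 0.05 and cultured with test substance at 10, 5, 2.5 or 1 mcg/ml, with medium exchanged periodically up to 30 days. Viable cell count and percentage were measured by trypan blue, and antigen-positive cells by immunofluorescence with anti-HIV antiserum, at 4–30 days. Values are means of two wells.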
# [1] = 1 mcg/ml, 4-day addition, after 4 days
# [2] = 1 mcg/ml, 4-day addition, after 7 days
# [3] = 1 mcg/ml, 4-day addition, after 10 days
# [4] = 1 mcg/ml, 4-day addition, after 30 days
# [5] = 1 mcg/ml, continuous addition, after 4 days
# [6] = 1 mcg/ml, continuous addition, after 7 days
# [7] = 1 mcg/ml, continuous addition, after 10 days
# [8] = 1 mcg/ml, continuous addition, after 30 days
# [9] = 2.5 mcg/ml, 4-day addition, after 4 days
# [10] = 2.5 mcg/ml, 4-day addition, after 7 days
# [11] = 2.5 mcg/ml, 4-day addition, after 10 days
# [12] = 2.5 mcg/ml, 4-day addition, after 20 days
# [13] = 2.5 mcg/ml, 4-day addition, after 30 days
# [14] = 2.5 mcg/ml, continuous addition, after 4 days
# [15] = 2.5 mcg/ml, continuous addition, after 7 days
# [16] = 2.5 mcg/ml, continuous addition, after 10 days
# [17] = 2.5 mcg/ml, continuous addition, after 20 days
# [18] = 2.5 mcg/ml, continuous addition, after 30 days
# [19] = 5 mcg/ml, 4-day addition, after 4 days
# [20] = 5 mcg/ml, 4-day addition, after 7 days
# [21] = 5 mcg/ml, 4-day addition, after 10 days
# [22] = 5 mcg/ml, 4-day addition, after 20 days
# [23] = 5 mcg/ml, 4-day addition, after 30 days
# [24] = 5 mcg/ml, continuous addition, after 4 days
# [25] = 5 mcg/ml, continuous addition, after 7 days
# [26] = 5 mcg/ml, continuous addition, after 10 days
# [27] = 5 mcg/ml, continuous addition, after 20 days
# [28] = 5 mcg/ml, continuous addition, after 30 days
compound,measurement,setting,value
"C[C@H]1COc2c(N3CCN(C)CC3)c(F)cc3c(=O)c(C(=O)O)cn1c23 [DR-3355, (-)-(S)-9-fluoro-2,3-dihydro-3-methyl-10-(4-methyl-1-piperazinyl)-7-oxo-7H-pyrido[1,2,3-de][1,4]benzoxazine-6-carboxylic acid hemihydrate]",Viable cell count,[1],220 × 10⁴ cells/ml
same,Viral antigen-positive cell percentage,[1],91%
same,Viable cell count,[2],71 × 10⁴ cells/ml
same,Viral antigen-positive cell percentage,[2],61%
same,Viable cell count,[3],54 × 10⁴ cells/ml
same,Viral antigen-positive cell percentage,[3],56%
same,Viable cell count,"1 mcg/ml, 4-day addition, after 20 days",3 × 10⁴ cells/ml
same,Viable cell count,[4],68 × 10⁴ cells/ml
same,Viral antigen-positive cell percentage,[4],16%
same,Viable cell count,[5],190 × 10⁴ cells/ml
same,Viral antigen-positive cell percentage,[5],88%
same,Viable cell count,[6],65 × 10⁴ cells/ml
same,Viral antigen-positive cell percentage,[6],52%
same,Viable cell count,[7],110 × 10⁴ cells/ml
same,Viral antigen-positive cell percentage,[7],43%
same,Viable cell count,"1 mcg/ml, continuous addition, after 20 days",11 × 10⁴ cells/ml
same,Viable cell count,[8],360 × 10⁴ cells/ml
same,Viral antigen-positive cell percentage,[8],15%
same,Viable cell count,[9],190 × 10⁴ cells/ml
same,Viral antigen-positive cell percentage,[9],88%
same,Viable cell count,[10],76 × 10⁴ cells/ml
same,Viral antigen-positive cell percentage,[10],53%
same,Viable cell count,[11],280 × 10⁴ cells/ml
same,Viral antigen-positive cell percentage,[11],44%
same,Viable cell count,[12],230 × 10⁴ cells/ml
same,Viral antigen-positive cell percentage,[12],30%
same,Viable cell count,[13],130 × 10⁴ cells/ml
same,Viral antigen-positive cell percentage,[13],10%
same,Viable cell count,[14],210 × 10⁴ cells/ml
same,Viral antigen-positive cell percentage,[14],87%
same,Viable cell count,[15],53 × 10⁴ cells/ml
same,Viral antigen-positive cell percentage,[15],51%
same,Viable cell count,[16],290 × 10⁴ cells/ml
same,Viral antigen-positive cell percentage,[16],25%
same,Viable cell count,[17],390 × 10⁴ cells/ml
same,Viral antigen-positive cell percentage,[17],35%
same,Viable cell count,[18],270 × 10⁴ cells/ml
same,Viral antigen-positive cell percentage,[18],11%
same,Viable cell count,[19],190 × 10⁴ cells/ml
same,Viral antigen-positive cell percentage,[19],90%
same,Viable cell count,[20],78 × 10⁴ cells/ml
same,Viral antigen-positive cell percentage,[20],59%
same,Viable cell count,[21],320 × 10⁴ cells/ml
same,Viral antigen-positive cell percentage,[21],33%
same,Viable cell count,[22],190 × 10⁴ cells/ml
same,Viral antigen-positive cell percentage,[22],36%
same,Viable cell count,[23],360 × 10⁴ cells/ml
same,Viral antigen-positive cell percentage,[23],2%
same,Viable cell count,[24],160 × 10⁴ cells/ml
same,Viral antigen-positive cell percentage,[24],87%
same,Viable cell count,[25],51 × 10⁴ cells/ml
same,Viral antigen-positive cell percentage,[25],53%
same,Viable cell count,[26],260 × 10⁴ cells/ml
same,Viral antigen-positive cell percentage,[26],37%
same,Viable cell count,[27],320 × 10⁴ cells/ml
same,Viral antigen-positive cell percentage,[27],29%
same,Viable cell count,[28],210 × 10⁴ cells/ml
same,Viral antigen-positive cell percentage,[28],4%
same,Viable cell count,"10 mcg/ml, 4-day addition, after 4 days",170 × 10⁴ cells/ml
